US7230157B1, “Chemical inducible promoter used to obtain transgenic plants with a silent marker and organisms and cells and methods of using same for screening for mutations” (The Rockefeller University, priority 1998, dated 2007)

What was measured:
tobacco leaf disks = experiment: Shoot regeneration from tobacco leaf disks transfected with XVE-CKI1; assay type: cell-based; settings: no externally applied plant hormones
Text: In addition to the GVG-ipt, pER8-CKI1 (XVE-CKI1) has been used to transfect tobacco leaf disks.

tobacco root cells = experiment: Shoot regeneration from tobacco root cells transformed with XVE-CKI1; assay type: cell-based
Text: The XVE-CKI1 vector was also used to transform tobacco root cells. […] The explants were transferred to fresh MBC medium (with or without the inducer) every two weeks. […] The explants grown in the presence of inducer formed green callus. […] This experiment used the same number of root explants with inducer as without inducer. Since 65 calli formed with inducer and only 49 without inducer, overexpression of CKI1 may also increase the efficiency of callus formation.

[1] = test system: Arabidopsis root explants; experiment: Regeneration of Arabidopsis root explants transfected with XVE-CKI1; settings: MIC medium with 5 μM 17-β-estradiol
tobacco leaf discs = experiment: DEX-dependent regeneration and Luc activity of tobacco leaf discs transfected with pTA7002G/ipt/luc; assay type: cell-based, Nicotiana tabacum; settings: for Percentage of LUC^+ regenerants / Total number of regenerants per 28 explants: Tobacco
Method: Nicotiana tabacum seeds cultivar SR1 were surface sterilized in 30% commercial bleach containing 0.02% Tween 20 for 10 minutes and washed five times with sterile water. Plants were grown in a tissue culture room at 22° C. at 16 hour light and 8 hour dark cycles. Tobacco transformation was essentially as described by Horsch et al. (1985) and Klee et al. (1987). Leaf discs were prepared from young leaves of four week old plants and the explants were cultured for two days on MB medium (MS salts, B5 vitamins, 20 g/L sucrose, 20 mg/L acetosyringone, 0.2% phytagel, pH 5.7). […] After 20 to 40 days of culturing, regenerated shoots were excised from explants and cultured on MS medium containing IAA to induce root regeneration.
(§1) The explants were transferred to fresh medium every two weeks to maintain constant culture conditions.
(§2) The transformation cassette pTA7002G/ipt/luc (FIG. 12) contained a luc gene under the control of the CaMV 35S promoter (Millar et al., 1992; Benfey and Chua, 1990). Luc activity was measured in order to estimate the number of transgenic shoots using the video imaging system described by Michelet and Chua (1996). Measurements were integrated over 5 minutes and the corresponding background was subtracted from the images (FIGS. 9A-F). Approximately 50% of the regenerants expressed the luc gene (Table 2).
To further characterize the transformation system, we examined the effects of the duration of induction as well as the effects of exogenously applied phytohormones. Time course experiments were performed to determine whether the specificity of the induction of the ipt gene decreases over time due to overproduction and diffusion of cytokinin, which could trigger regeneration events in neighboring, non-transformed cells. […] No significant difference in the percentage of regenerants with detectable Luc activity was found over time. After 20 days, 46% of regenerants had detectable Luc activity and after both 30 and 40 days 53% of regenerants had detectable Luc activity. […] Similar results have been obtained with lettuce.
No significant difference in luciferase activity occurred at different auxin concentrations. At 1.0 mg/mL auxin 45% of regenerants had detectable Luc activity, at 1.5 mg/mL auxin 58% of regenerants had detectable Luc activity, and at 2.0 mg/mL auxin 47% of regenerants had detectable Luc activity.

lettuce leaf disks = experiment: DEX-dependent regeneration and Luc activity of lettuce leaf disks transfected with pTA7002G/ipt/luc; assay type: cell-based, Lactuca sativa; settings: DEX 10 μM
Method: Sterilized lettuce […] (Lactuca sativa var. Great Lake #118) were germinated and the seedlings were grown as described for tobacco. Transformation of lettuce leaf discs was performed as described by Curtis et al. (1996) with the exception that cytokinin was omitted from the culture media.
as §1, §2

## C[C@]12CC[C@@H]3c4ccc(O)cc4CC[C@H]3[C@@H]1CC[C@@H]2O [17-β-estradiol]
Tobacco leaf disks
  time of shoot initiation after induction: 25 to 35 days
Tobacco root cells; 5 μM 17-β-estradiol
  time of shoot initiation after induction: 40 to 50 days
Tobacco root cells; MBC medium with 5 μM 17-β-estradiol
  white/brown calli that became green and produced shoots: 13 out of 65
[1]
  time of culture until small dark green callus appears: about 10 days
  time of culture until small shoots appear: about 15 days

## C[C@@H]1C[C@H]2[C@@H]3CCC4=CC(=O)C=C[C@]4(C)[C@@]3(F)[C@@H](O)C[C@]2(C)[C@@]1(O)C(=O)CO [DEX, dexamethasone]
Tobacco leaf discs; 10 μM DEX, after 20 days of induction, 54 regenerants
  regenerants with detectable Luc activity: 46%
Tobacco leaf discs; 10 μM DEX, after 30 days of induction
  regenerants with detectable Luc activity: 53%
Tobacco leaf discs; 10 μM DEX, after 40 days of induction
  regenerants with detectable Luc activity: 53%
Tobacco leaf discs; DEX 0.1 μM
  Percentage of LUC^+ regenerants: 29
  Total number of regenerants per 28 explants: 139
Tobacco leaf discs; DEX 1 μM
  Percentage of LUC^+ regenerants: 44
  Total number of regenerants per 28 explants: 129
Tobacco leaf discs; DEX 10 μM
  Percentage of LUC^+ regenerants: 49
Lettuce leaf disks
  Percentage of LUC^+ regenerants: 46
  Total number of regenerants per 28 explants: 198

## auxin
Tobacco leaf discs; 10 μM DEX, 40 days
  regenerants with detectable Luc activity: 45%
Tobacco leaf discs; 1.5 mg/mL auxin and 10 μM DEX, 40 days
  regenerants with detectable Luc activity: 58%
Tobacco leaf discs; 2.0 mg/mL auxin and 10 μM DEX, 40 days
  regenerants with detectable Luc activity: 47%
